Laboratory results taken from patent publication US9987243B2, “Use of trans-palmitoleate in identifying and treating metabolic disease” (Trustees of Tufts College, priority 2010, dated 2018).
Marks after values point to notes of the source that are not given here.

What was measured:
[1] = system: 2,985 participants free of prevalent diabetes at baseline; test: Cardiovascular Health Study: plasma phospholipid fatty acids and incident diabetes mellitus (Cox proportional-hazards); format: in vivo, human; conditions: for RR of diabetes per SD: per each higher SD of the plasma phospholipid fatty acid, multivariable-adjusted (covariates as in Table 4)
Procedure: Plasma phospholipid fatty acids, anthropometry, blood lipids, inflammatory markers, and glucose-insulin levels were measured at baseline using standardized methods. Independent determinants of trans-palmitoleate and relationships of trans-palmitoleate with metabolic risk factors were investigated using multivariable-adjusted linear regression.
Multivariable model adjusted for age (years), gender (male/female), race (white/nonwhite), education (<high school, high school, some college, college graduate), enrollment site (four sites), smoking (never, former, current), body mass index (kg/m^2), waist circumference (cm), coronary heart disease (yes/no), physical activity (kcal/wk), alcohol use (six categories), and consumption of carbohydrate (% energy), protein (% energy), red meat (servings/week), whole-fat dairy foods (6 categories), low-fat dairy foods (five categories), and total energy (kcal/d).
Participants were followed by means of annual examinations for 10 years with interim and subsequent 6-month telephone contacts. Ives et al., 5 Ann. Epidemiol. […] At each visit, detailed medication information was obtained using medication inventories. At baseline, study interviewers visited participants in their homes and asked to see all prescription medications they had taken in the previous 2 weeks. At follow-up exams, participants brought to clinic all prescription medications taken in the previous 2 weeks. Drug names, doses, and frequencies were coded according to prescription medication Medispan files.
Relationships between phospholipid fatty acids were evaluated using Spearman correlation. Trans-palmitoleate levels were evaluated in sex-specific quintiles as indicator variables and continuously per SD difference. Independent demographic and lifestyle determinants of trans-palmitoleate were evaluated using multivariable-adjusted linear regression with trans-palmitoleate as the dependent variable. Multivariable-adjusted relationships of trans-palmitoleate with metabolic risk factors (transformed for normality as appropriate) were evaluated using linear regression with trans-palmitoleate as the independent variable. Quintiles were evaluated as ordinal variables to assess trend, to assess effect modification using the Wald test for a multiplicative interaction term, and to assess differences in baseline characteristics by means of linear or logistic regression. […] To minimize potential confounding, covariates were selected based on biologic interest, being well-established risk factors for metabolic risk, or associations with exposures/outcomes in the present cohort. […] Analyses were performed using Stata10.1 (College Station, Tex.), two-tailed alpha=0.05.

[2] = system: C2C12 myotubes; test: Glucose uptake assay in differentiated C2C12 myotubes; format: cell-based; conditions: 0.25 mM for 6 hr, values only in FIG. 1
Procedure: FIG. 1 is a bar graph showing data from differentiated C2C12 myotubes that were incubated with control medium, or medium with 0.25 mM palmitate (C16) or trans-16:1n7-palmitoleate for 6 hours; glucose uptake was assayed as described herein.
C2C12 myoblasts were maintained in 20% fetal bovine serum. To differentiate the myoblasts, cells were plated in 12-well plates coated with 0.2% gelatin and medium changed to 2% horse serum upon confluence. Five days post-differentiation, C2C12 myotubes were incubated in serum-free medium with 0.5% bovine serum albumin (Sigma) and indicated fatty acids at a final concentration of 0.25 mM for 6 hr. Glucose uptake assay was performed as described previously, with modifications. Somwar et al., 276 J. Biol. Chem. 46079 (2001). Briefly, cells were washed twice with 500 μl warm Krebs-Ringer-Hepes (KRH) buffer and 1 ml of KRH buffer was added into each wells. ^3H 2-D-Glucose (0.5 μCi/well) was added and cells were kept in incubator for 10 min. Medium was then removed and cells washed twice with ice-cold KRH buffer. Cells were plated on ice and lysed in 500 μl 0.1% SDS. Aliquots of 400 μl cell lysate were used for scintillation counting and protein assay quantification assay was performed on the rest of cell lysate.

[3] = system: 3,736 U.S. men and women in the Cardiovascular Health Study; test: Cardiovascular Health Study: multivariable-adjusted relationships of plasma phospholipid trans-palmitoleate with metabolic risk factors; format: in vivo, human; conditions: for BMI / Blood Pressure: Diastolic / Blood Pressure: Systolic / Fasting insulin / HOMA-IR / Total/HDL-C ratio / Waist circumference: adjusted mean
Procedure: The present inventors investigated relationships of circulating trans-palmitoleate levels with metabolic risk and incident diabetes mellitus among 3,736 U.S. men and women in the prospective Cardiovascular Health Study. Plasma phospholipid fatty acids, anthropometry, blood lipids, inflammatory markers, and glucose-insulin levels were measured at baseline using standardized methods. Independent determinants of trans-palmitoleate and relationships of trans-palmitoleate with metabolic risk factors were investigated using multivariable-adjusted linear regression. Relationships with incident diabetes (304 incident cases) were investigated using Cox proportional-hazards. Validation for metabolic risk factors was performed in a second independent cohort of 327 generally healthy women.
CHS design and recruitment have been described. Fried et al., 1 Ann. Epidemiol. 263 (1991). Briefly, 5,201 ambulatory, non-institutionalized adults age ≥65 were selected randomly and then enrolled in 1989 to 1990 from Medicare eligibility lists in 4 U.S. communities (Forsyth County, NC; Sacramento County, CA; Washington County, MD.; Allegheny County, PA); an additional 687 black participants were recruited similarly and enrolled in 1992. Among all eligible adults contacted, 57% agreed to enroll. Baseline in-clinic evaluations included standardized physical examination, diagnostic testing, laboratory evaluation, and questionnaires on health status, medical history, and cardiovascular and lifestyle risk factors. Each center's institutional review committee approved the study; all participants provided informed written consent.
Plasma phospholipid fatty acids were measured in 3,736 individuals using 1992 blood samples, considered to be the baseline for all present analyses. This included 3,238 participants randomly selected from individuals with available blood samples in 1992 and an additional 498 participants from a prior case-control study of myocardial infarction. All analyses accounted for this within-cohort sampling using inverse-probability-of-sampling weights. Plasma phospholipids were selected as an excellent marker of longer-term (4-8 week) circulating fatty acids, with similar responses as levels in erythrocyte membranes. Blood was drawn after a 12-hr fast, stored (−70° C.), and shipped on dry ice for long-term centralized storage (−80° C.). Under these conditions plasma phospholipid fatty acids are stable long-term, and in prior studies we observed no degradation, lipolysis, or oxidation after 10 years storage. Measurements were performed at the Fred Hutchinson Cancer Research Center, providing quantitative measurement of 45 fatty acids as percent of total fatty acids. Total lipids were extracted from plasma using methods of Folch, and phospholipids separated from neutral lipids by one-dimensional TLC. Fatty-acid-methyl-ester (FAME) samples were prepared by direct transesterification using methods of Lepage and separated using gas chromatography (Agilent5890 gas-chromatograph-FID-detector; Supelco fused-silica 100 m capillary column SP-2560; initial 160° C. 16 min, ramp 3.0° C./min to 240° C., hold 15 min). Identification, precision, and accuracy were continuously evaluated using model mixtures of known FAMEs and established in-house controls, with identification confirmed by GC-MS at USDA (Peoria, Ill.) or for trans-fats by silver-ion TLC. CVs were 2.5% for trans-palmitoleate and <3% for most fatty acids.
At study-clinic examinations, risk factors were measured by trained personnel. Fried et al., 1991. Anthropometric measures including weight, height, and waist circumference were collected using standard procedures and used to calculate body mass index (BMI). Fasting total cholesterol, HDL-C, and triglycerides were measured according to CDC methods. LDL-C was calculated according to Friedewald equation, excluding individuals with hypertriglyceridemia. […]

[4] = system: 327 generally healthy women in the Nurses' Health Study; test: Nurses' Health Study validation cohort: erythrocyte and plasma trans-palmitoleate versus metabolic risk factors; format: in vivo, human; conditions: multivariable-adjusted level across quartiles
Procedure: For independent validation, we evaluated the association of trans-palmitoleate measured in erythrocyte membranes and plasma (Sun et al., 88 Am. J. Clin. Nutr, 216 (2008)), with metabolic risk factors in a cohort of 327 generally healthy women, age=60.4±6.1 years, in the Nurses' Health Study (NHS). Relationships were evaluated for HDL-C, total:HDL-C, interleukin-6, CRP, and hemoglobinAlc. Because many samples were nonfasting, triglycerides and LDL-C were not evaluated; the number of subjects was too small to evaluate incident diabetes. Multivariable models were adjusted for age, smoking, physical activity, alcohol intake, family history, hypertension, hormone use, fasting status, and dietary carbohydrate, protein, polyunsaturated fats, saturated fat, dietary fiber, and total energy. We also evaluated correlations of trans-palmitoleate levels in plasma vs. erythrocytes in NHS (Spearman correlation[r]=0.74); and in phospholipids vs. triglycerides in CHS (n=104; r=0.54).

[5] = system: OB/OB, wild-type, and high-fat diet mice; test: Tolerability of oral gavage administration in mice; format: in vivo; conditions: 200 mg/kg/day to 2 g/kg/day for 5 weeks in PEG 300
Procedure: Trans-palmitoleate was obtained in pure, powdered form from Nu-Check Prep, Inc. (Elysian, Minn.) and dissolved in a polyethylene glycol vehicle (PEG 300). Mice were administered, by gavage, trans-palmitoleate in doses ranging from 200 mg/kg/day to 2 g/kg/day for 5 weeks. […] In OB/OB mice, after 2 weeks of treatment, plasma lipid analysis was determined from samples taken after 6 hr of fasting, 30 hr after last trans-palmiloleate administration. Additionally, research diets comprising mouse chow at 2% trans-palmitoleate % total food weight can be formulated.

[6] = across quintiles, further adjusted for adiposity
[7] = across quintiles, multivariable-adjusted
[8] = quintile I (median 0.13% of total fatty acids)
[9] = quintile II (median 0.16% of total fatty acids)
[10] = quintile III (median 0.18% of total fatty acids)
[11] = quintile IV (median 0.21% of total fatty acids)
[12] = quintile V (median 0.25% of total fatty acids)
[13] = erythrocyte trans-palmitoleate, first value
[14] = erythrocyte trans-palmitoleate, second value
[15] = plasma trans-palmitoleate, first value
[16] = plasma trans-palmitoleate, second value

SMILES: CCCCCC/C=C/CCCCCCCCCC(=O)O [Vaccenic acid, vaccenic acid, reference compound]
- RR of diabetes per SD [1]: 0.89

SMILES: CCCCCC/C=C/CCCCCCCC(=O)O [trans-palmitoleate, trans-C16:1n7-palmitoleic acid]
- glucose uptake [2]: Positive Glucose Uptake
- extreme-quintile RR of new-onset diabetes ([1]; additional adjustment for levels of both 15:0 and 17:0): 0.39
- extreme-quintile RR of incident diabetes ([1]; additional adjustment for vaccenic acid (trans-18:1n-7)): 0.43
- extreme-quintile RR of incident diabetes ([1]; men): 0.29
- RR of diabetes per SD [1]: 0.72
- multivariable-adjusted RR of diabetes lower per each higher SD ([1]; per each higher SD of trans-palmitoleate): 28%
- No. of incident cases of diabetes mellitus ([1]; quintile I, 5,595 person-years of follow-up): 93
- Hazard ratio (RR) of incident diabetes, age- and sex-adjusted ([1]; quintile II vs quintile I): 0.84
- Hazard ratio (RR) of incident diabetes, multivariate-adjusted ([1]; quintile II vs quintile I): 0.79
- No. of incident cases of diabetes mellitus ([1]; quintile II, 5,435 person-years of follow-up): 68
- Hazard ratio (RR) of incident diabetes, age- and sex-adjusted ([1]; quintile III vs quintile I): 0.88
- Hazard ratio (RR) of incident diabetes, multivariate-adjusted ([1]; quintile III vs quintile I): 0.89
- No. of incident cases of diabetes mellitus ([1]; quintile III, 5,556 person-years of follow-up): 59
- Hazard ratio (RR) of incident diabetes, age- and sex-adjusted ([1]; quintile IV vs quintile I): 0.44
- Hazard ratio (RR) of incident diabetes, multivariate-adjusted ([1]; quintile IV vs quintile I): 0.41
- No. of incident cases of diabetes mellitus ([1]; quintile IV, 5,811 person-years of follow-up): 46
- Hazard ratio (RR) of incident diabetes, age- and sex-adjusted ([1]; quintile V vs quintile I): 0.36
- Hazard ratio (RR) of incident diabetes, multivariate-adjusted ([1]; quintile V vs quintile I): 0.38
- No. of incident cases of diabetes mellitus ([1]; quintile V, 5,469 person-years of follow-up): 38
- extreme-quintile RR of incident diabetes ([1]; women): 0.41
- association with fibrinogen ([3]; P=0.006, limited to lower levels in the lowest quintile only): higher fibrinogen
- difference in CRP across quintiles [3, 6]: −13.8%
- difference in HDL-C across quintiles [3, 6]: +1.9%
- difference in fasting insulin across quintiles [3, 6]: −13.3%
- difference in insulin resistance assessed by HOMA-IR across quintiles [3, 6]: −16.7%
- difference in total:HDL-C ratio across quintiles [3, 6]: −4.7%
- difference in triglycerides across quintiles [3, 6]: −19.0%
- difference in BMI across quintiles [3, 7]: −1.8%
- difference in waist circumference across quintiles [3, 7]: −1.8%
- association with LDL-C, fasting glucose, or BP ([3]; multivariable-adjusted): not associated
- BMI [3, 8]: 26.7 kg/m^2
- Blood Pressure: Diastolic [3, 8]: 71 mmHg
- Blood Pressure: Systolic [3, 8]: 137 mmHg
- Fasting insulin [3, 8]: 11.3 mU/l
- HOMA-IR [3, 8]: 3.0 units
- Total/HDL-C ratio [3, 8]: 4.3
- Waist circumference [3, 8]: 97.7 cm
- BMI [3, 9]: 27.0 kg/m^2
- Blood Pressure: Diastolic [3, 9]: 71 mmHg
- Blood Pressure: Systolic [3, 9]: 136 mmHg
- Fasting insulin [3, 9]: 11.0 mU/l
- HOMA-IR [3, 9]: 2.9 units
- Total/HDL-C ratio [3, 9]: 4.3
- Waist circumference [3, 9]: 98.4 cm
- BMI [3, 10]: 26.8 kg/m^2
- Blood Pressure: Diastolic [3, 10]: 70 mmHg
- Blood Pressure: Systolic [3, 10]: 136 mmHg
- Fasting insulin [3, 10]: 10.7 mU/l
- HOMA-IR [3, 10]: 2.8* units
- Total/HDL-C ratio [3, 10]: 4.2
- Waist circumference [3, 10]: 97.2 cm
- BMI [3, 11]: 26.9 kg/m^2
- Blood Pressure: Diastolic [3, 11]: 71 mmHg
- Blood Pressure: Systolic [3, 11]: 136 mmHg
- Fasting insulin [3, 11]: 10.2† mU/l
- HOMA-IR [3, 11]: 2.7† units
- Total/HDL-C ratio [3, 11]: 4.1†
- Waist circumference [3, 11]: 97.4 cm
- BMI [3, 12]: 26.2 kg/m^2
- Blood Pressure: Diastolic [3, 12]: 71 mmHg
- Blood Pressure: Systolic [3, 12]: 136 mmHg
- Fasting insulin [3, 12]: 9.8‡ mU/l
- HOMA-IR [3, 12]: 2.5‡ units
- Total/HDL-C ratio [3, 12]: 4.1†
- Waist circumference [3, 12]: 96.0* cm
- CRP [4, 13]: 3.3 mg/L
- hemoglobinAlc [4, 13]: 5.92
- interleukin-6 (IL-6) [4, 13]: 2.3 pg/mL
- total:HDL-C [4, 13]: 4.21
- CRP [4, 14]: 2.1 mg/L
- hemoglobinAlc [4, 14]: 5.66
- interleukin-6 (IL-6) [4, 14]: 1.8 pg/mL
- total:HDL-C [4, 14]: 3.87
- HDL-C [4, 15]: 56.5 mg/dL
- hemoglobinAlc [4, 15]: 5.88%
- total:HDL-C [4, 15]: 4.28
- HDL-C [4, 16]: 61.7 mg/dL
- hemoglobinAlc [4, 16]: 5.64%
- total:HDL-C [4, 16]: 3.63
- tolerability [5]: well-tolerated, with no ill effects observed
